Biological target: MALT-1 (Isoform1) (Homo sapiens (Human), UniProt Q9UDY8)
Assay: Biochemical fluorescent assay of MALT-1 (Isoform1) enzyme inhibition
Conditions: recombinant MALT-1 (Isoform1); for inhibition at 1 µM: compound at 1 μM, read-out: Percent Inhibition (@ 1 μM); for IC50: 50 μM AC-LRSR-MAC substrate, 240 min
Description: The potency of compounds to inhibit MALT-1 (Isoform1) enzyme was tested in a Fluorescent assay using recombinant MALT-1 (Isoform1, aa-840) generated in-house. The assay buffer was 50 mM HEPES (pH 7.5), 100 mM NaCl, 10 mM DTT, 1 mM EDTA, 0.9 M sodium citrate, 0.01% CHAPS. 1.5 nM of MALT-1 enzyme was incubated with various concentrations of test compounds ([…]) (1% DMSO) in the presence of buffer for 30 minutes at 30° C. The protease reaction was initiated by adding 50 μM of AC-LRSR-MAC (Peptide International, USA) substrate and incubated for 240 min. After 240 min incubation, fluorescence emission of the samples at 460 nm was measured at an excitation of 355 nm. The percent inhibition was calculated using the following formula: […]. IC50 values were determined by fitting the dose-response data to sigmoidal curve fitting equation using Graph pad prism software VS.

MALT-1 (Isoform1), sequence (Q9UDY8 whole entry, canonical isoform): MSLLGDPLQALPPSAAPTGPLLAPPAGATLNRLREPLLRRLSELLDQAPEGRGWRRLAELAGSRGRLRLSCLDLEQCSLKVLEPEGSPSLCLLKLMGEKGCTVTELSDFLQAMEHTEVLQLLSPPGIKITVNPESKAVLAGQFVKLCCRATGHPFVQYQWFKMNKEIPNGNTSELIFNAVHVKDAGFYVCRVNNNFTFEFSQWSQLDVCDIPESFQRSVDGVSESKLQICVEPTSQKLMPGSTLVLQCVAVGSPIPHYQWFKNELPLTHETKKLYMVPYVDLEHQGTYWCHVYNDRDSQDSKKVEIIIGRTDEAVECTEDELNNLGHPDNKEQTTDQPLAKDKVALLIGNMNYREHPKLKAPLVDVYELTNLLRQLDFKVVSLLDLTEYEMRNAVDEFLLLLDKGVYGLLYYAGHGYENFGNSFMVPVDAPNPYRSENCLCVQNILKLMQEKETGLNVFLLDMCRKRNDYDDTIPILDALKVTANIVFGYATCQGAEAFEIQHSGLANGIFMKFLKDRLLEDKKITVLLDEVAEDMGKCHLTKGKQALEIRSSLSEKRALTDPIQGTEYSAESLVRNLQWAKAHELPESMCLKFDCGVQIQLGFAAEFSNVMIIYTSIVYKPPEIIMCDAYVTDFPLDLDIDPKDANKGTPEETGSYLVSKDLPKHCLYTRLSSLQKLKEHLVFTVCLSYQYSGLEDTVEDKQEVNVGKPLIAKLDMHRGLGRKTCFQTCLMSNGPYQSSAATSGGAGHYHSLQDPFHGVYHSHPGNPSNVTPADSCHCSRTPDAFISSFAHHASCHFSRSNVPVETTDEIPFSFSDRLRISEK

SMILES | inhibition at 1 µM [%] | IC50 [nM]
CO[C@@H](C)c1c(NC(=O)Nc2cc(Cl)c3nc(Cl)nn3c2)cnc2cc(Cl)nn12 [Example 30] | 96 | < 50
COC(C)c1c(NC(=O)Nc2cc(Cl)c3ncnn3c2)cnc(C)c1Br (stereo not drawn) [Example 34b, 1-(5-bromo-4-(1-methoxyethyl)-6-methylpyridin-3-yl)-3-(8-chloro-[1,2,4]triazolo[1,5-a]pyridin-6-yl)urea] | 33 | 
COC(C)c1c(NC(=O)Nc2cc(F)c3nc(C)nn3c2)cnc(C)c1Br (stereo not drawn) [Example 36] | 69 | > 250
COC(C)c1c(NC(=O)Nc2cc(F)c3nc(C)nn3c2)cnc(C)c1Cl (stereo not drawn) [Example 37] | 48 | > 250
Cc1nc2c(C3CC3)c(NC(=O)Nc3cc(Cl)c4ncnn4c3)cnc2s1 [Example 38, 1-(8-chloro-[1,2,4]triazolo[1,5-a]pyridin-6-yl)-3-(7-cyclopropyl-2-methylthiazolo[5,4b]pyridin-6-yl)urea] | 62 | > 250
COC(C)c1c(NC(=O)Nc2cc(F)c3nc(C)nn3c2)cnc2sc(C)nc12 (stereo not drawn) [Example 39, 1-(8-fluoro-2-methyl-[1,2,4]triazolo[1,5-a]pyridin-6-yl)-3-(7-(1-methoxyethyl)-2-methylthiazolo[5,4-b]pyridin-6-yl)urea] | 77 | > 250
CO[C@@H](C)c1c(NC(=O)Nc2cc(F)c3ncnn3c2)cnc2cc(C(F)F)nn12 [Example 45] | 78 | 51 to 250
CO[C@@H](C)c1c(NC(=O)Nc2cc(F)c3nc(C)nn3c2)cnc2cc(C3CC3)nn12 [Example 46] | 40 | < 50
CO[C@@H](C)c1c(NC(=O)Nc2cc(F)c3nc(C(=O)N4CCCC4)nn3c2)cnc2cc(Cl)nn12 [Example 48] | 86 | 51 to 250

Now from value to compound:

inhibition at 1 µM [%] | IC50 [nM] | SMILES
84 | > 250 | CO[C@@H](C)c1c(NC(=O)Nc2cc(F)c3ncnn3c2)cnc2cc(C)nn12 [Example 28]
83 | 51 to 250 | CO[C@@H](C)c1c(NC(=O)Nc2cc(F)c3nc(CN(C)C)nn3c2)cnc2cc(Cl)nn12 [Example 29]
96 | 51 to 250 | CO[C@@H](C)c1c(NC(=O)Nc2cc(Cl)c3nccn3c2)cnc2cc(Cl)nn12 [Example 40]
69 | > 250 | CO[C@@H](C)c1c(NC(=O)Nc2cc(F)c3nc(C)cn3c2)cnc2cc(Cl)nn12 [Example 41]
79 | 51 to 250 | CO[C@@H](C)c1c(NC(=O)Nc2cc(F)c3nc(C)c(C)n3c2)cnc2cc(Cl)nn12 [Example 42]
86 | 51 to 250 | CO[C@@H](C)c1c(NC(=O)Nc2cc(F)c3nccn3c2)cnc2cc(Cl)nn12 [Example 43]
90 | 51 to 250 | CO[C@@H](C)c1c(NC(=O)Nc2cc(F)c3ncc(C)n3c2)cnc2cc(Cl)nn12 [Example 44]
54 | < 50 | CO[C@@H](C)c1c(NC(=O)Nc2cc(F)c3nc(C)nn3c2)cnc2cc(C#N)nn12 [Example 47]
